# Reference: patent US12729218B2, “Glycolipids and use thereof as SK3 ion channel modulators” (priority 2020, dated 2026)
# Assays:
# SK3 channels = biological target: T1, SK3 channels (Homo sapiens, UniProt Q9UGI6); assay: Whole-cell patch-clamp of SK3 currents in HEK293T cells expressing SK3 channels; type: cell-based; conditions: 10 μM; for time after application at which the maximum of the activation of SK3 current was reached / time after addition at which the effect on SK3 current was reached: currents at 0 mV
# T1 construct: expressed in transfected cells
# Experimental: HEK293T were obtained from American Type Culture Collection (ATCC) and cultured in Dulbecco's Modified Eagle's Medium, supplemented with 10% (v:v) fetal bovine serum (Lonza, France), 1 mM pyruvate sodium (Sigma-Aldrich, France), and 1% non-essential amino acid (Sigma-Aldrich, France). Cells were grown in a humidified atmosphere at 37° C. and with 95% air and 5% CO2. HEK293T cells were transduced as previously described to obtain stable expression of homotetramer SK3 channels.
# Experiments were performed in the whole-cell configuration of the patch-clamp technique. The patch pipettes were filled with solution contained 145 mM KCl, 1 mM MgCl2, 1 mM Mg-ATP, 0.7 mM CaCl2), 1 mM EGTA and 10 mM HEPES (PCa 6). pH was adjusted to 7.2 with KOH. The bath solution contained 140 mM NaCl, 4 mM KCl, 2 mM CaCl2), 1 mM MgCl2, 10 mM HEPES, 0.33 mM NaH2PO4, and 11.5 mM D-glucose. pH was adjusted to 7.4 with NaOH. Patch-clamp experiments and data analyses were conducted as previously described (Girault, A. et al. Current Cancer Drug Target, 2011, 11, 1111-1125). […] The amplitude of the apamin-sensitive current was obtained by subtraction of the amplitude of the current before and after application of 100 nmol/L apamin (a specific SKCa blocker).
# The capacity of the compounds 001-006 (Table 2, FIGS. 1 and 2) to modulate the activity of SK3 currents was measured using the whole cell configuration of the patch-clamp technique. For these acute tests, a concentration of 10 μM for each of the compounds was used.
# [1] = tested on: Thoracic aortic segment (smooth muscle cells); assay: Relaxation of phenylephrine pre-contracted, endothelium-removed thoracic aortic rings; parameters: species or system guinea pig; conditions: 10 μM added 2 times, pre-contracted with 10 μM phenylephrine, 5 minutes after additions
# From the text: Thoracic aortic segments were isolated from a guinea pig as already indicated by Vandier et al, (Adv Physiol Educ. 2002 December; 26(1-4):195-203). Briefly, thoracic aortic segments were isolated, cleaned of adventitia, and cut into rings. The endothelium was removed and aortic rings, were mounted on stainless steel hooks and suspended in a 30-ml jacketed tissue bath with physiological salt solution (in mm): 120 NaCl, 5.4 KCl, 1 MgCl2, 0.6 NaH2PO4, 25 NaHCO3, 5.6 glucose, 5 Na-pyruvate, and 2 CaCl2, bubbled with 95% 02-5% CO2 maintained at 37° C. and aerated with 95% 02-5% CO2. Solutions to be tested were directly added in the jacketed tissue bath generated allowed one to get the desired concentration around the aortic rings. Isometric force generation was recorded with Grass transducers (FT03; Quincy, MA) connected to an amplifier (gain 500) and analogic to digital converter (1 Hz) connected to a computer.
# Thoracic aortic segment was pre-contracted using 10 μM phenylephrine. After the steady state was reached 10 μM of compound 002 was added, two successive times, directly in the bath solution containing a physiological salt solution, maintained at 37° C. and aerated with 95% 02-5% CO2
Substance,effect on SK3 channel in words (SK3 channels),"SK3 current (change after application of compound) (SK3 channels; acute, HEK293T expressing SK3, currents analyzed at 0 mV, pCa 6, mean ± SEM)",time after application at which the maximum of the activation of SK3 current was reached (SK3 channels) [min],time after addition at which the effect on SK3 current was reached (SK3 channels) [s],relaxation effect on pre-contracted thoracic aortic segment [1]
Lac(OH)7-O-2-methoxy-3-S-hexadecane [compound 001],abolished the activating effect,−9.7% ± 5.2,–,–,–
Lac(OH)7-O-2-methoxy-4-S-heneicosane [compound 003],kept its activation capacity,–,5,–,–
Lac(OH)7-O-2-ethoxy-4-S-heneicosane [compound 006],–,–,–,30,–
Lac(OH)7-O-2-methoxy-3-S-heneicosane [compound 002],strong activator of SK3 channel,–,5,30,dose-dependent relaxation
